Measurements taken from article PMC12028158, “Synthesis and In Vitro Evaluation of the Anticancer Effect of Novel Phosphonium Vindoline Derivatives” (International Journal of Molecular Sciences, 2025).
Like-named read-outs stand apart in the source and are kept apart here.

Tests used:
Assay type in all cases: cell-based
UACC-62 [1] = assay: NCI60 one-dose screen; settings: Homo sapiens
CCRF-CEM [2] = assay: NCI60 five-dose screen; settings: Homo sapiens
NCI-H460 = assay: NCI60 one-dose screen; settings: Homo sapiens
HCT-15 = assay: NCI60 five-dose screen; settings: Homo sapiens
U251 = assay: NCI60 one-dose screen; settings: Homo sapiens
HCC-2998 = assay: NCI60 one-dose screen; settings: Homo sapiens
NCI-H226 = assay: NCI60 five-dose screen; settings: Homo sapiens
EKVX [3] = assay: NCI60 one-dose screen; settings: Homo sapiens, read-out: Growth percent
Leukemia panel = assay: NCI60 five-dose screen, panel mean; settings: Homo sapiens, read-out: Mean GI50
BT-549 [4] = assay: NCI60 five-dose screen; settings: Homo sapiens
HCT-116 = assay: NCI60 five-dose screen; settings: Homo sapiens
SN12C [5] = assay: NCI60 five-dose screen; settings: Homo sapiens
SK-MEL-5 = assay: NCI60 one-dose screen; settings: Homo sapiens
PC-3 = assay: NCI60 one-dose screen; settings: Homo sapiens
MALME-3M = assay: NCI60 five-dose screen; settings: Homo sapiens
SNB-75 = assay: NCI60 one-dose screen; settings: Homo sapiens
RXF 393 = assay: NCI60 one-dose screen; settings: Homo sapiens
CNS Cancer panel = assay: NCI60 five-dose screen, panel mean; settings: Homo sapiens, read-out: Mean GI50
Colon Cancer panel = assay: NCI60 five-dose screen, panel mean; settings: Homo sapiens, read-out: Mean GI50
SNB-19 = assay: NCI60 five-dose screen; settings: Homo sapiens
EKVX [6] = assay: NCI60 five-dose screen; settings: Homo sapiens
MCF7 [7] = assay: NCI60 five-dose screen; settings: Homo sapiens
OVCAR-3 = assay: NCI60 one-dose screen; settings: Homo sapiens
RPMI-8226 = assay: NCI60 five-dose screen; settings: Homo sapiens
NCI-H322M = assay: NCI60 five-dose screen; settings: Homo sapiens
UACC-257 = assay: NCI60 one-dose screen; settings: Homo sapiens
Prostate Cancer panel = assay: NCI60 five-dose screen, panel mean; settings: Homo sapiens, read-out: Mean GI50
CAKI-1 = assay: NCI60 one-dose screen; settings: Homo sapiens
K-562 = assay: NCI60 five-dose screen; settings: Homo sapiens, K562
CCRF-CEM [8] = assay: NCI60 one-dose screen; settings: Homo sapiens, read-out: Growth percent
TK-10 = assay: NCI60 five-dose screen; settings: Homo sapiens
BT-549 [9] = assay: NCI60 one-dose screen; settings: Homo sapiens
Breast Cancer panel = assay: NCI60 five-dose screen, panel mean; settings: Homo sapiens, read-out: Mean GI50
Ovarian Cancer panel = assay: NCI60 five-dose screen, panel mean; settings: Homo sapiens, read-out: Mean GI50
IGROV1 [10] = assay: NCI60 five-dose screen; settings: Homo sapiens, IGROV-1
OVCAR-8 [11] = assay: NCI60 five-dose screen; settings: Homo sapiens
NCI/ADR-RES [12] = assay: NCI60 five-dose screen; settings: Homo sapiens
SF-539 [13] = assay: NCI60 five-dose screen; settings: Homo sapiens
HS 578T = assay: NCI60 five-dose screen; settings: Homo sapiens
SF-268 = assay: NCI60 five-dose screen; settings: Homo sapiens
OVCAR-8 [14] = assay: NCI60 one-dose screen; settings: Homo sapiens
MCF7 [15] = assay: NCI60 one-dose screen; settings: Homo sapiens
COLO 205 = assay: NCI60 five-dose screen; settings: Homo sapiens
IGROV1 [16] = assay: NCI60 one-dose screen; settings: Homo sapiens
SN12C [17] = assay: NCI60 one-dose screen; settings: Homo sapiens, read-out: Growth percent
NCI/ADR-RES [18] = assay: NCI60 one-dose screen; settings: Homo sapiens, read-out: Growth percent
UACC-62 [19] = assay: NCI60 five-dose screen; settings: Homo sapiens
SF-539 [20] = assay: NCI60 one-dose screen; settings: Homo sapiens
[21] = Non-small Cell Lung Cancer, five-dose, read-out: GI50

## CCC12C=CCN3CCC4(c5ccc(OC)cc5N(C)C4C(O)(C(=O)OC)C1OC(=O)CCC[P+](c1ccc(C)cc1)(c1ccc(C)cc1)c1ccc(C)cc1)C32 (stereo not drawn) [9a]
UACC-62 [1]; UACC-62, read-out: Growth percent
  activity at 10 µM: -96.8%
CCRF-CEM [2]
  GI50: 359 nM
NCI-H460; NCI-H460, read-out: Growth percent
  activity at 10 µM: -85.2%
HCT-15; HCT-15
  GI50: 1620 nM
U251; U-251, read-out: Growth percent
  activity at 10 µM: -91.2%
HCC-2998; HCC 2998, read-out: Growth percent
  activity at 10 µM: -91.4%
NCI-H226; NCI-H226
  GI50: 521 nM
EKVX [3]
  activity at 10 µM: -94.7%
Leukemia panel
  GI50: 260 nM
BT-549 [4]; BT-549
  GI50: 247 nM
HCT-116; HCT-116
  GI50: 307 nM
SN12C [5]
  GI50: 291 nM
SK-MEL-5; SK-MEL-5, read-out: Growth percent
  activity at 10 µM: -99.4%
PC-3; PC-3, read-out: Growth percent
  activity at 10 µM: -83.3%
MALME-3M; Malme-3M
  GI50: 220 nM
SNB-75; SNB-75, read-out: Growth percent
  activity at 10 µM: -61.2%
RXF 393; RXF 393, read-out: Growth percent
  activity at 10 µM: -82.8%
CNS Cancer panel
  GI50: 360 nM
Colon Cancer panel
  GI50: 510 nM
SNB-19; SNB-19
  GI50: 306 nM
EKVX [6]
  GI50: 534 nM
MCF7 [7]; MCF7
  GI50: 281 nM
OVCAR-3; OVCAR-3, read-out: Growth percent
  activity at 10 µM: -61.9%
RPMI-8226; RPMI-8226
  GI50: 186 nM
NCI-H322M
  GI50: 785 nM
UACC-257; UACC-257, read-out: Growth percent
  activity at 10 µM: -92.7%
Prostate Cancer panel
  GI50: 380 nM
CAKI-1; CAKI-1, read-out: Growth percent
  activity at 10 µM: -95.3%
K-562
  GI50: 291 nM
CCRF-CEM [8]
  activity at 10 µM: -67%
TK-10; TK-10
  GI50: 600 nM
BT-549 [9]; BT-549, read-out: Growth percent
  activity at 10 µM: -96.9%
Breast Cancer panel
  GI50: 270 nM
Ovarian Cancer panel
  GI50: 1570 nM
IGROV1 [10]
  GI50: 383 nM
OVCAR-8 [11]; OVCAR-8
  GI50: 372 nM
NCI/ADR-RES [12]
  GI50: 8870 nM
SF-539 [13]; SF-539
  GI50: 338 nM
HS 578T; Hs-578T
  GI50: 344 nM
SF-268; SF-268
  GI50: 343 nM
OVCAR-8 [14]; OVCAR-8, read-out: Growth percent
  activity at 10 µM: -85%
MCF7 [15]; MCF7, read-out: Growth percent
  activity at 10 µM: -76.3%
COLO 205; COLO 205
  GI50: 176 nM
IGROV1 [16]; IGROV-1, read-out: Growth percent
  activity at 10 µM: -89.5%
SN12C [17]
  activity at 10 µM: -88.1%
NCI/ADR-RES [18]
  activity at 10 µM: 18.1%
UACC-62 [19]; UACC-62
  GI50: 275 nM
SF-539 [20]; SF-539, read-out: Growth percent
  activity at 10 µM: -96.6%

## CC[C@]12C=CCN3CC[C@@]4(c5ccc(OC)cc5N(C)[C@H]4[C@@](O)(C(=O)OC)[C@@H]1OC(=O)CCC[P+](c1ccc(OC)cc1)(c1ccc(OC)cc1)c1ccc(OC)cc1)[C@@H]32 [9b]
UACC-62 [1]; UACC-62, 10 μM, one-dose, read-out: Growth percent
  activity at 10 µM: -97.1%
CCRF-CEM [2]; Leukemia, five-dose, read-out: GI50
  GI50: 887 nM
NCI-H460; NCI-H460, 10 μM, one-dose, read-out: Growth percent
  activity at 10 µM: -85.2%
HCT-15; HCT-15, Colon Cancer, five-dose, read-out: GI50
  GI50: 3640 nM
U251; U-251, U251, 10 μM, one-dose, read-out: Growth percent
  activity at 10 µM: -93.7%
HCC-2998; HCC-2998, 10 μM, one-dose, read-out: Growth percent
  activity at 10 µM: -89.7%
NCI-H226; NCI-H226, Non-small Cell Lung Cancer, five-dose, read-out: GI50
  GI50: 1430 nM
EKVX [3]; 10 μM, one-dose
  activity at 10 µM: -85%
Leukemia panel; mean over Leukemia panel
  GI50: 550 nM
BT-549 [4]; BT-549, Breast Cancer, five-dose, read-out: GI50
  GI50: 1050 nM
HCT-116; HCT-116, Colon Cancer, five-dose, read-out: GI50
  GI50: 712 nM
SN12C [5]; Renal Cancer, five-dose, read-out: GI50
  GI50: 672 nM
SK-MEL-5; SK-MEL-5, 10 μM, one-dose, read-out: Growth percent
  activity at 10 µM: -99.6%
PC-3; PC-3, 10 μM, one-dose, read-out: Growth percent
  activity at 10 µM: -78.8%
MALME-3M; MALME-3M, Melanoma, five-dose, read-out: GI50
  GI50: 624 nM
SNB-75; SNB-75, 10 μM, one-dose, read-out: Growth percent
  activity at 10 µM: -34%
RXF 393; RXF 393, 10 μM, one-dose, read-out: Growth percent
  activity at 10 µM: -92.6%
CNS Cancer panel; mean over CNS Cancer panel
  GI50: 1020 nM
Colon Cancer panel; mean over Colon Cancer panel
  GI50: 980 nM
SNB-19; SNB-19, SNB-19, CNS Cancer, five-dose, read-out: GI50
  GI50: 391 nM
EKVX [6]; [21]
  GI50: 1060 nM
MCF7 [7]; MCF7, MCF7, Breast Cancer, five-dose, read-out: GI50
  GI50: 383 nM
OVCAR-3; OVCAR-3, 10 μM, one-dose, read-out: Growth percent
  activity at 10 µM: -73.6%
RPMI-8226; RPMI-8226, Leukemia, five-dose, read-out: GI50
  GI50: 275 nM
NCI-H322M; [21]
  GI50: 2860 nM
UACC-257; UACC-257, 10 μM, one-dose, read-out: Growth percent
  activity at 10 µM: -93.5%
Prostate Cancer panel; mean over Prostate Cancer panel
  GI50: 710 nM
CAKI-1; CAKI-1, 10 μM, one-dose, read-out: Growth percent
  activity at 10 µM: -93.3%
K-562; K-562, Leukemia, five-dose, read-out: GI50
  GI50: 556 nM
CCRF-CEM [8]; 10 μM, one-dose
  activity at 10 µM: -71.2%
TK-10; TK-10, Renal Cancer, five-dose, read-out: GI50
  GI50: 1510 nM
BT-549 [9]; BT-549, 10 μM, one-dose, read-out: Growth percent
  activity at 10 µM: -96.6%
Breast Cancer panel; mean over Breast Cancer panel
  GI50: 640 nM
Ovarian Cancer panel; mean over Ovarian Cancer panel
  GI50: 3460 nM
IGROV1 [10]; IGROV1, Ovarian Cancer, five-dose, read-out: GI50
  GI50: 533 nM
OVCAR-8 [11]; OVCAR-8, Ovarian Cancer, five-dose, read-out: GI50
  GI50: 1410 nM
NCI/ADR-RES [12]; Ovarian Cancer, five-dose, read-out: GI50
  GI50: 18100 nM
SF-539 [13]; SF-539, CNS Cancer, five-dose, read-out: GI50
  GI50: 1230 nM
HS 578T; HS 578T, Breast Cancer, five-dose, read-out: GI50
  GI50: 1180 nM
SF-268; SF-268, CNS Cancer, five-dose, read-out: GI50
  GI50: 1210 nM
OVCAR-8 [14]; OVCAR-8, 10 μM, one-dose, read-out: Growth percent
  activity at 10 µM: -86.2%
MCF7 [15]; MCF7, 10 μM, one-dose, read-out: Growth percent
  activity at 10 µM: -83%
COLO 205; COLO 205, COLO 205, Colon Cancer, five-dose, read-out: GI50
  GI50: 194 nM
IGROV1 [16]; IGROV-1, IGROV1, 10 μM, one-dose, read-out: Growth percent
  activity at 10 µM: -92.1%
SN12C [17]; 10 μM, one-dose
  activity at 10 µM: -93.4%
NCI/ADR-RES [18]; 10 μM, one-dose
  activity at 10 µM: 79.9%
UACC-62 [19]; UACC-62, Melanoma, five-dose, read-out: GI50
  GI50: 603 nM
SF-539 [20]; SF-539, 10 μM, one-dose, read-out: Growth percent
  activity at 10 µM: -98.9%
